Columns and labels:
Assay in all cases: relative viability (nuclei count vs DMSO), 5 days (fraction); higher = more cells survive
[1] = compound: C1=CC2=C(C=C(C(=C2N=C1)O)N=NC3=CC4=C(C=C3)C=C(C=C4)S(=O)(=O)O)S(=O)(=O)O + CS(=O)(=O)CCNCc1ccc(-c2ccc3ncnc(Nc4ccc(OCc5cccc(F)c5)c(Cl)c4)c3c2)o1 [Lapatinib] (partner 2 µM)
Procedure, shortened: (§1)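 Lung cancer cell lines, seeded in 1536-well plates, were treated the following day by pin tool with a single drug or with five library-drug doses (not always all listed) in √10 steps on top of a fixed anchor-drug dose. Cells were fixed and nuclei stained in one step after 5 days, and nuclei were counted. Relative viability is the nuclei count for treated wells divided by that for vehicle wells, reported as medians of duplicate plates.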

AT-7519 + Palbociclib = compound: O=C(NC1CCNCC1)c1n[nH]cc1NC(=O)c1c(Cl)cccc1Cl [AT-7519] + CC(=O)c1c(C)c2cnc(Nc3ccc(N4CCNCC4)cn3)nc2n(C2CCCC2)c1=O [Palbociclib] (partner 0.5 µM)
Procedure, shortened: as §1

AT-7519 + Luminespib = compound: O=C(NC1CCNCC1)c1n[nH]cc1NC(=O)c1c(Cl)cccc1Cl [AT-7519] + CCNC(=O)c1noc(-c2cc(C(C)C)c(O)cc2O)c1-c1ccc(CN2CCOCC2)cc1 [Luminespib] (partner 0.01 µM)
Procedure, shortened: as §1

AT-7519 + Phenformin = compound: O=C(NC1CCNCC1)c1n[nH]cc1NC(=O)c1c(Cl)cccc1Cl [AT-7519] + N=C(N)NC(=N)NCCc1ccccc1 [Phenformin] (partner 250 µM)
Procedure, shortened: as §1

| Cell Line | relative viability ([1]; first compound 0.08 µM) | relative viability ([1]; first compound 0.253 µM) | relative viability ([1]; first compound 0.8 µM) | relative viability ([1]; first compound 2.53 µM) | relative viability ([1]; first compound 8 µM) | relative viability (AT-7519 + Palbociclib; first compound 0.01 µM) | relative viability (AT-7519 + Palbociclib; first compound 0.03162 µM) | relative viability (AT-7519 + Palbociclib; first compound 0.3162 µM) | relative viability (AT-7519 + Palbociclib; first compound 1 µM) | relative viability (AT-7519 + Luminespib; first compound 0.01 µM) | relative viability (AT-7519 + Luminespib; first compound 0.03162 µM) | relative viability (AT-7519 + Luminespib; first compound 0.3162 µM) | relative viability (AT-7519 + Luminespib; first compound 1 µM) | relative viability (AT-7519 + Phenformin; first compound 0.01 µM) | relative viability (AT-7519 + Phenformin; first compound 0.03162 µM) | relative viability (AT-7519 + Phenformin; first compound 0.3162 µM) | relative viability (AT-7519 + Phenformin; first compound 1 µM) |
| --- | --- | --- | --- | --- | --- | --- | --- | --- | --- | --- | --- | --- | --- | --- | --- | --- | --- |
| EKVX | 0.215 | 0.215 | 0.172 | 0.208 | 0.219 | 0.498 | 0.369 | 0.299 | 0.375 | 0.988 | 0.845 | 0.846 | 0.774 | 0.246 | 0.242 | 0.259 | 0.23 |
| LXF-289 | 0.934 | 0.889 | 0.897 | 0.955 | 0.903 | 0.597 | 0.656 | 0.527 | 0.577 | 0.557 | 0.724 | 0.697 | 0.5 | 0.574 | 0.524 | 0.489 | 0.53 |
| ABC-1 | 1.25 | 0.989 | 1.08 | 1.18 | 1.02 | 0.778 | 0.702 | 0.549 | 0.442 | 0.75 | 0.582 | 0.347 | 0.206 | 0.245 | 0.242 | 0.234 | 0.164 |
| NCI-H650 | 0.91 | 0.786 | 0.838 | 0.86 | 0.525 | 0.329 | 0.335 | 0.296 | 0.452 | 0.75 | 0.7 | 0.838 | 0.611 | 0.492 | 0.465 | 0.49 | 0.421 |
| NCI-H1650 | 0.753 | 0.739 | 0.714 | 0.821 | 0.734 | 0.284 | 0.331 | 0.27 | 0.164 | 0.186 | 0.202 | 0.205 | 0.21 | 0.466 | 0.427 | 0.292 | 0.15 |
| NCI-H2085 | 0.915 | 0.783 | 0.749 | 0.818 | 0.842 | 0.454 | 0.503 | 0.515 | 0.608 | 0.528 | 0.405 | 0.489 | 0.515 | 0.744 | 0.7 | 0.759 | 0.53 |
| NCI-H1793 | 0.769 | 1 |  | 0.651 | 0.59 | 0.309 | 0.299 | 0.305 | 0.285 | 0.387 | 0.161 | 0.385 | 0.119 | 0.354 | 0.457 | 0.434 | 0.387 |
| LC-2-ad | 0.982 | 0.937 | 0.922 | 0.954 | 0.589 | 0.497 | 0.466 | 0.484 | 0.372 | 1.03 | 0.892 | 1.17 | 0.501 | 0.522 | 0.573 | 0.498 | 0.413 |
| COR-L 105 | 0.401 | 0.394 | 0.378 | 0.377 | 0.358 | 0.382 | 0.416 | 0.371 | 0.354 | 0.776 | 0.942 | 0.68 | 0.521 | 0.451 | 0.489 | 0.301 | 0.286 |
| NCI-H1355 | 1.02 | 0.999 | 0.905 | 1.05 | 1.08 | 0.348 | 0.389 | 0.359 | 0.589 | 0.87 | 0.621 | 0.564 | 0.578 | 0.455 | 0.461 | 0.371 | 0.458 |
| H3255 | 0.283 | 0.236 | 0.255 | 0.246 | 0.237 | 0.376 | 0.309 | 0.328 | 0.308 | 0.902 | 0.936 | 0.938 | 0.974 | 0.489 | 0.384 | 0.313 | 0.31 |
| NCI-H1993 | 0.82 | 0.71 | 0.801 | 0.723 | 0.589 | 0.759 | 0.638 | 0.612 | 0.229 | 0.788 | 0.823 | 0.844 | 0.388 | 0.544 | 0.574 | 0.528 | 0.439 |
| NCI-H1734 | 1.13 | 1.03 | 1.05 | 0.911 | 1.09 | 0.288 | 0.319 | 0.353 | 0.167 | 0.2 | 0.174 | 0.164 | 0.0866 | 0.385 | 0.342 | 0.323 | 0.175 |
| HOP-62 | 1.32 | 0.925 | 0.972 | 1.05 | 0.993 | 0.422 | 0.465 | 0.489 | 0.489 | 1.02 | 0.916 | 0.993 | 0.859 | 0.706 | 0.655 | 0.512 | 0.679 |
| LOU-NH91 | 0.868 | 0.79 | 0.755 | 0.781 | 0.781 | 0.491 | 0.552 | 0.524 | 0.461 | 0.356 | 0.312 | 0.351 | 0.281 | 0.674 | 0.743 | 0.677 | 0.631 |

Reference: the supplement of paper PMC10307832
